Assay results as given in patent US20240216513A1, “FATTY ACID-BIFUNCTIONAL DEGRADER CONJUGATES AND THEIR METHODS OF USE” (Novartis AG, priority 2021, published 2024).
Like-named read-outs stand apart in the source and are kept apart here.

Assays:
[1] = BTK FAC plasma stability assay, PBS buffer arm; type: physicochemical; settings: incubation to 24 h
Method in brief: (§1)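 Compound from a 500 µM acetonitrile:water working solution was spiked into K3-EDTA plasma or Dulbecco's PBS and incubated with shaking at 38 °C. Samples taken at 0, 2, 6 and 24 h were precipitated with cold acetonitrile containing glyburide internal standard. Semi-quantitative LC-MS/MS used analyte:internal standard peak area ratios.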

[2] = BTK FAC plasma stability assay, mouse plasma; type: in vitro ADME; settings: incubation to 24 h
Method in brief: as §1

[3] = BTK FAC plasma stability assay, rat plasma; type: in vitro ADME; settings: incubation to 24 h
Method in brief: as §1

[4] = BTK FAC plasma stability assay, dog plasma; type: in vitro ADME
[5] = In vivo pharmacokinetic study in mice (i.v. or s.c.), FAC and payload in blood; design: species or system mouse; settings: for AUC: male, C57/B16, whole blood

For `COc1ccc(C(=O)N2CCC3(CCN(CCc4ccc(-c5cc6c(-c7cc(F)cc(NC(=O)c8ccc(C(C)(C)O)cc8F)c7C)ncnc6[nH]5)cc4)CC3)CC2)cc1N1CCC(=O)NC1=O` [Compound V, N-(3-(6-(4-(2-(9-(3-(2,4-Dioxotetrahydropyrimidin-1(2H)-yl)-4-methoxybenzoyl)-3,9-diazaspiro[5.5]undecan-3-yl)ethyl)phenyl)-7H-pyrrolo[2,3-d]pyrimidin-4-yl)-5-fluoro-2-methylphenyl)-2-fluoro-4-(2-hydroxypropan-2-yl)benzamide], the “Plasma stability (h) PBS” value [1] was over 48 h, the “Plasma stability (h) mouse” value [2] was 27.1 h and the “Plasma stability (h) rat” value [3] was 39.3 h. For the same molecule, the “Plasma stability (h) dog” value [4] was over 48 h, the “Payload C0-uM (unconjugated degrader dosed, first payload cell)” value ([5]; API i.v., species taken as mouse, listed as note (1 umol/kg), head 10 umol/kg) was 8.1 µM and the AUC ([5]; iv, API i.v., species taken as mouse, listed as note (1 umol/kg), head 10 umol/kg, read-out: Payload AUC-uM.h (unconjugated degrader dosed, first payload cell)) was 8.2 µM·h. For the same molecule, the AUC ([5]; sc, mouse, subcutaneous dosing, unconjugated Compound V at 1 umol/kg, read-out: Payload AUC) was 8.2 µM·h.
